Results reported in US20250186540A1, “VIPR2 ANTAGONIST PEPTIDE FOR SUPPRESSING CANCER METASTASIS” (ICHIMARU PHARCOS CO., LTD., priority 2022, published 2025).
Positions of bridges follow the written chain, without caps; N, C: chain ends.

Experiments:
[1] = system: MCF-7 cells overexpressing VIPR2-EGFP; experiment: Cell proliferation test with KS-133; assay type: cell-based; conditions: for Number of cells (mean value): 100 nM KS-133, 100 nM VIP, 2% FBS
Description: This effect was confirmed. The cell proliferation test was performed according to NON-PATENT DOCUMENT 3. MCF-7 cells overexpressing VIPR2-EGFP were seeded in a 35 mm culture dish at a density of 1×10^5 cells/dish for 6 hours, and the culture medium was replaced with a fresh medium containing 2% FBS, 100 nM VIP, and 0 nM or 100 nM KS-133 (day 0). Cells were observed under a BZ-X800 fluorescence microscope (Keyence, Kyoto, Japan) and the number of cells was counted every 24 hours for up to 4 days by trypan blue dye staining using a hemacytometer (timecourse experiment).

[2] = system: phosphorylation of AKT in MDA-MB-231 cells stably expressing VIPR2-EGFP; experiment: Phosphorylation of AKT by VIP in the presence and absence of KS-133 (Western blotting); assay type: cell-based
Description: (§1) Western blotting was performed according to a previously described method (Asano et al. 2014, Biol. Open3, 463-474; Asano et al. 2019, Sci. Rep. 9, 12729).
Pathway by VIP in MDA-MB-231 Cells Stably Expressing VIPR2-EGFP>Phosphorylation of AKT by VIP in MDA-MB-231 cells stably expressing VIPR2-EGFP was evaluated in the presence and absence of KS-133.

[3] = system: MDA-MB-231 breast cancer cells stably expressing VIPR2-EGFP; experiment: Transwell migration test with KS-133; assay type: cell-based
Description: (§2) In addition, the measurement was performed according to the method described above (Asano et al. 2012, Mol. Cell Biol. 32, 3242-3252) using a Boyden chamber. To each well, 600 μL of a serum-free culture solution containing 200 nM VIP was added. Cells (1×10^4 cells) were suspended in 100 μL of a serum-free culture solution and added to the insert. The cells were allowed to migrate for 30 or 48 hours at 37° C. Non-mobile cells adhering to the upper surface of the membrane were removed, and mobile cells adhering to the lower surface were fixed with 4% paraformaldehyde and counted with a fluorescence microscope.
Using the transwell shown in FIG. 7, the effect of KS-133 on migration of MDA-MB-231 breast cancer cells stably expressing VIPR2-EGFP was examined. MDA-MB-231 cells stably expressing VIPR2-EGFP were suspended in serum-free medium containing KS-133 at each of the concentrations of 0 nM to 1000 nM (1×10^4 cells/100 μL). A serum-free medium 6 containing 200 nM VIP and KS-133 at each of the concentrations was added to each well in an amount of 600 μL, and an insert 3 having 3 μm pores 5 was immersed in the well. Then, the suspended cells 1 were added to the insert 3, and incubated under conditions of 37° C. and 5% CO2. After 48 hours, the cells were fixed, cells on the surface of the insert 3 were removed, and then fluorescence of EGFP of cells 2 that had moved to the rear surface in response to induction by VIP was detected with a fluorescence microscope. The number of the cells that had moved to the rear surface of the insert was graphed based on the fluorescence image.
FIG. 8A is a fluorescence micrograph showing migrated cells. FIG. 8B and Table 2 show the number of migrated cells when each concentration of KS-133 was added.

[4] = system: psychiatric disease model mice; conditions: NON-PATENT DOCUMENT 2; cited from earlier work
[5] = system: MDA-MB-231 cells stably expressing EGFP or VIPR2-EGFP; experiment: Transwell chamber assay of VIP-induced movement; assay type: cell-based; conditions: 200 nM VIP; 30 hours
Description: as §2
Cells were suspended in serum-free media (1×10^4 cells/[…]). A serum-free medium 6 containing 200 nM VIP was added to each well in an amount of 600 μL, and an insert 3 having 3 μm pores 5 was immersed in the well. […] After 30 hours, cells were fixed, cells on the surface of the insert 3 were removed, and then fluorescence of EGFP of cells 2 that had moved to the rear surface in response to VIP was detected with a fluorescence microscope. The number of the cells that had moved to the rear surface of the insert was graphed based on the fluorescence image. […] VIP (200 nM) was added to the well, the cells were added to the insert and incubated at 37° C. for 30 hours, and cells that had moved to the rear side of the insert were quantified and shown graphically.

[6] = system: MDA-MB-231 cells stably expressing EGFP or VIPR2-EGFP; experiment: WAVE2-rich lamellipodia area after VIP stimulation; assay type: cell-based; conditions: 100 nM VIP; 30 minutes
Description: MDA-MB-231 cells (2×10^5 cells) stably expressing EGFP or VIPR2-EGFP were seeded on collagen-coated cover glass and incubated under conditions of 37° C. and 5% CO2. After 24 hours, the cells were washed with serum-free medium, and fresh serum-free medium was added to incubate the cells (under conditions of 37° C. and 5% CO2). After 3 hours, the medium was replaced with serum-free medium containing 100 nM VIP, and incubation for 30 minutes was performed. The cells were fixed with 4% paraformaldehyde, and immunostained using an anti-WAVE2 antibody. The surface area of a WAVE2-rich region immediately below the cell membrane was measured from a fluorescently-stained image of the same and graphed.
Data are shown as mean±SD. **: p<0.01, ***: p<0.001, between indicated groups (Kruskal-Wallis test and Dunn's multiple comparison test). “n.s.” indicates not statistically significant. […] The MDA-MB-231 cells stably expressing VIPR2-EGFP had more pronounced area expansion of lamellipodia compared to the control MDA-MB-231 cells expressing EGFP.

[7] = system: phosphorylation of AKT in MCF-7 cells; experiment: Phosphorylation of AKT on VIP stimulation (Western blotting); assay type: cell-based; conditions: MCF-7 cells starved 3 hours, 0 nM to 1000 nM VIP for 10 minutes
Description: as §1
To investigate whether VIP is involved in cell movement via the PI3K/PI(3,4,5)P3 pathway, phosphorylation of AKT, a downstream signal of the PI3K/PI(3,4,5)P3 pathway in cancer cells, was assessed by Western blotting. […] All experiments were independently performed at least three times, and similar data were obtained.

Ac-c[Cys^1-Pro^2-Pro^3-Tyr^4-Leu^5-Pro^6-c(Lys^7-Tyr^8-Leu^9-Cys^10]-Asp^11)-Leu^12-Ile^13-NH2 (Ac-CPPYLPKYLCDLI-NH2; disulfide 1-10; lactam 7-11; SMILES CC[C@H](C)[C@H](NC(=O)[C@H](CC(C)C)NC(=O)[C@@H]1CC(=O)NCCCC[C@@H]2NC(=O)[C@@H]3CCCN3C(=O)[C@H](CC(C)C)NC(=O)[C@H](Cc3ccc(O)cc3)NC(=O)[C@@H]3CCCN3C(=O)[C@@H]3CCCN3C(=O)[C@@H](NC(C)=O)CSSC[C@H](NC(=O)[C@H](CC(C)C)NC(=O)[C@H](Cc3ccc(O)cc3)NC2=O)C(=O)N1)C(N)=O) [KS-133]
Number of cells (mean value) ([1]; Day 0): 1.0 × 10^5 | Number of cells (mean value) ([1]; Day 1): 0.85 × 10^5 | Number of cells (mean value) ([1]; Day 2): 0.65 × 10^5 | Number of cells (mean value) ([1]; Day 3): 0.45 × 10^5 | Number of cells (mean value) ([1]; Day 4): 0.2 × 10^5 | cell proliferation ([1]; MCF-7 cells overexpressing VIPR2, addition of KS-133): significantly suppressed from Day 2 of culture or later | expression of AKT [2]: did not affect the expression of AKT | phosphorylation of AKT induced by VIP ([2]; presence vs absence of KS-133): strongly suppressed phosphorylation of AKT induced by VIP in an addition concentration-dependent manner | VIP-induced cell migration ([3]; 200 nM VIP, KS-133 0 nM to 1000 nM, 48 hours): suppressed | Mean cell count (migrated cells) ([3]; KS-133 30 nM, 200 nM VIP, 48 hours): 4.35 Cells/mm^2 | Mean cell count (migrated cells) ([3]; KS-133 100 nM, 200 nM VIP, 48 hours): 2.08 Cells/mm^2 | Mean cell count (migrated cells) ([3]; KS-133 300 nM, 200 nM VIP, 48 hours): 1.39 Cells/mm^2 | Mean cell count (migrated cells) ([3]; KS-133 1000 nM, 200 nM VIP, 48 hours): 0.78 Cells/mm^2 | KS-133 concentration showing a significant difference in migration compared to the absence of KS-133 ([3]; Kruskal-Wallis test and Dunn's multiple comparison test): ≥ 100 nM | cognitive decline [4]: suppress cognitive decline

Vasoactive intestinal peptide [VIP]
number of cells that had moved to the back side of the insert [5]: increased | WAVE2-rich area of lamellipodia [6]: expanded the WAVE2-rich area of lamellipodia | phosphorylation of AKT [7]: phosphorylated in a VIP addition concentration-dependent manner
